{
  "source": "patent US6740645B1",
  "about": "“17β-acyl-17α-propynyl-11β-(cyclic amino) aryl steroids and their derivatives having antagonist hormonal properties” (Research Triangle Institute, priority 1999, dated 2004)",
  "system": "rabbit uterus",
  "experiment": "anti-McGinty test for antiprogestational activity (McPhail Index)",
  "format": "in vivo",
  "conditions": "for McPhail Index: estrogen-primed immature female rabbits, n = 3",
  "method": "Biological activity was examined by means of the anti-McGinty test for antiprogestational activity. Immature female rabbits weighing 1000 to 1100 grams were primed with estrogen (5 μg of estradiol in sesame oil as vehicle, given subcutaneously) for 6 days, followed by a surgical procedure to introduce the test compounds into the uterine horn [see for example Teruhiko Tamaya, et al., Local progestational and antiprogestational effects of steroids and their metabolites on the rabbit uterus. Japanese Journal of Fertility and Sterility 24:48-51 (1979)]. A single dose of test compound in sesame oil as vehicle, accompanied by a single dose of progesterone (0.3 μg in sesame oil as vehicle) was given. On the third day (dosing being day one) the animals were sacrificed. The uteri were then removed, weighed and a section was kept in 10% formalin for microslide preparation for McPhail Index [M. K. McPhail, The Journal of Physiology, 83: 10 (1934)] determination. […] Antiprogestational compounds should block the effect of progesterone on the McPhail Index, which is zero in the absence of progesterone.",
  "key": {"[1]": {"conditions": "total dose 0.3 (μg) of test compound + progesterone 0.3 μg, single dose into uterine horn"}, "[2]": {"conditions": "total dose 3 of test compound + progesterone 0.3 μg, single dose into uterine horn"}, "[3]": {"conditions": "total dose 30 of test compound + progesterone 0.3 μg, single dose into uterine horn"}},
  "data": [
    {"smiles": "C#CC1(C(C)=O)CCC2C3CCC4=CC(=O)CCC4=C3C(c3ccc(N4CCCCC4)cc3)CC21C", "note": "(stereo not drawn) [RTI-6617-048, 11β-[4-(N-Piperidino)phenyl]-17α-ethynyl-19-norpregna-4,9-diene-3,20-dione]", "values": [
      {"measurement": "McPhail Index", "setting": "[1]", "value": "1.94 +/− 0.31"},
      {"measurement": "McPhail Index", "setting": "[2]", "value": "0.89 +/− 0.3"},
      {"measurement": "McPhail Index", "setting": "[3]", "value": "0.0 +/− 0.0"}
    ]},
    {"smiles": "CC#CC1(C(C)=O)CCC2C3CCC4=CC(=O)CCC4=C3C(c3ccc(N4CCCCC4)cc3)CC21C", "note": "(stereo not drawn) [RTI-6617-041, 11β-[4-(N-piperidino)phenyl]-17α-(1-propynyl)-19-norpregna-4,9-diene-3,20-dione]", "values": [
      {"measurement": "antiprogestational effect (in words)", "setting": "0.3 μg dose, anti-McGinty test", "value": "marked effect"},
      {"measurement": "antiprogestational potency compared with RTI-6617-048 and RTI-6617-040 (in words)", "setting": "anti-McGinty test, Table 1", "value": "markedly more potent"},
      {"measurement": "McPhail Index", "setting": "[1]", "value": "0.78 +/− 0.21"},
      {"measurement": "McPhail Index", "setting": "[2]", "value": "0.0 +/− 0.0"},
      {"measurement": "McPhail Index", "setting": "[3]", "value": "0.0 +/− 0.0"}
    ]},
    {"smiles": "CC(=O)[C@H]1CC[C@H]2[C@@H]3CCC4=CC(=O)CC[C@]4(C)[C@H]3CC[C@]12C", "note": "[Progesterone, progesterone]", "values": [
      {"measurement": "McPhail Index", "setting": "progesterone (P) alone, total dose 0.3 (μg), uterine horn", "value": "2.2 +/− 0.3"}
    ]},
    {"smiles": "CC#C[C@]1(C(C)=O)CC[C@H]2[C@@H]3CCC4=CC(=O)CCC4=C3[C@@H](c3ccc(N(C)C)cc3)C[C@@]21C", "note": "[RTI-6617-040, 11β-[4-(N,N-Dimethylamino)phenyl]-17α-(1-propynyl)-19-norpregna-4,9-diene-3,20-dione]", "values": [
      {"measurement": "McPhail Index", "setting": "[1]", "value": "1.83 +/− 0.36"},
      {"measurement": "McPhail Index", "setting": "[2]", "value": "0.0 +/− 0.0"},
      {"measurement": "McPhail Index", "setting": "[3]", "value": "0.0 +/− 0.0"}
    ]}
  ]
}
